Assay type in all cases: biochemical
In one assay the target is T1, SGK kinase (Homo sapiens, UniProt O00141).
T1 sequence (O00141 1-431): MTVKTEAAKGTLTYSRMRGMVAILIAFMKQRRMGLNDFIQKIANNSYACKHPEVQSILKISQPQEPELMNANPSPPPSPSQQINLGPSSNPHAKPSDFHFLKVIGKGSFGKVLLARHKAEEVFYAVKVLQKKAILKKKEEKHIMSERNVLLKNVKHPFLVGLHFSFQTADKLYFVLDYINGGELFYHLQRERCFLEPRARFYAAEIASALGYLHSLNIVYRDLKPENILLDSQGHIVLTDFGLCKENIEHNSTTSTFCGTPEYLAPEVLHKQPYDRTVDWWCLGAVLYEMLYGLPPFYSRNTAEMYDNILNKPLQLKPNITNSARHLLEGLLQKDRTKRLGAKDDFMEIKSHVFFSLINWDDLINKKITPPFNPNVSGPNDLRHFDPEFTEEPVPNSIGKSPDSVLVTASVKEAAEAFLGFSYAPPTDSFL
Nature of the assay: IC50 for SGK kinase (selectivity). The settings on record: for IC50: read-out: IC50-SGK1. As for the experimental part:
Entries identified with “1” had values above 250 nM; entries identified with “2” had values above 1 μM; entries identified with “3” had values above 10 μM.

The target of the next assay is T2, PKC alpha (Homo sapiens, UniProt P17252).
T2 construct: purchased Pan Vera
Nature of the assay: Ki Pan Vera (PV) potency for PKC alpha. The settings on record: Ki Pan Vera (PV) of PKC alpha. As to the method:
[The source words this procedure for another target and reports this target under the same test.] (§1) For Ki Pan Vera (PV) of PKCθ, entries identified with “A” had values below 100 nM; entries identified with “B” had values below 1 μM; and entries identified with “C” had values below 10 μM.

A further assay has as its target T3, PKCθ (Homo sapiens, UniProt Q04759).
T3 construct: purchased Pan Vera
As to the kind of experiment: Ki Pan Vera (PV) potency for PKCθ. The settings on record: Ki Pan Vera (PV) of PKCθ. As for the experimental part:
as §1

Another assay addresses T4, PKC delta (Homo sapiens, UniProt Q05655).
T4 construct: purchased Pan Vera
Nature of the assay: Ki Pan Vera (PV) potency for PKC delta. The conditions noted are these: Ki Pan Vera (PV) of PKC delta. As for the experimental part: [The source words this procedure for another target and reports this target under the same test.] as §1

T3 sequence (Q04759 whole entry): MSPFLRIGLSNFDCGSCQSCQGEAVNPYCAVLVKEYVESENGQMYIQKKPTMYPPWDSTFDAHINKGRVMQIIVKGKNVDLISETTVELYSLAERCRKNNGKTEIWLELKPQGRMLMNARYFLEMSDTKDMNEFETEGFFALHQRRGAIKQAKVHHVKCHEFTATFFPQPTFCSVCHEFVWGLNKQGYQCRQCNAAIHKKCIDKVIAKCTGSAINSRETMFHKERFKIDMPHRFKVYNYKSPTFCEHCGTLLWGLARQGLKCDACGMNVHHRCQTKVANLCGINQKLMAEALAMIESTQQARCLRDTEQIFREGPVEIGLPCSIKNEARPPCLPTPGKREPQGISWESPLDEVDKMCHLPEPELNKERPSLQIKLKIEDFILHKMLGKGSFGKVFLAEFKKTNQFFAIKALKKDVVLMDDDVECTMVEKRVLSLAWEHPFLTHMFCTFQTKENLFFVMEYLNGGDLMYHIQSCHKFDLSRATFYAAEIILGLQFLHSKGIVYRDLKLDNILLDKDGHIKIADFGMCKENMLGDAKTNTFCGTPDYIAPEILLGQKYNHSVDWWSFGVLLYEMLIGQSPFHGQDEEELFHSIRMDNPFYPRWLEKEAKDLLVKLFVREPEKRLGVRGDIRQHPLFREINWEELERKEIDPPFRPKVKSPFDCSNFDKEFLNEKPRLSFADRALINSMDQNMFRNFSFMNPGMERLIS
T4 sequence (Q05655 whole entry): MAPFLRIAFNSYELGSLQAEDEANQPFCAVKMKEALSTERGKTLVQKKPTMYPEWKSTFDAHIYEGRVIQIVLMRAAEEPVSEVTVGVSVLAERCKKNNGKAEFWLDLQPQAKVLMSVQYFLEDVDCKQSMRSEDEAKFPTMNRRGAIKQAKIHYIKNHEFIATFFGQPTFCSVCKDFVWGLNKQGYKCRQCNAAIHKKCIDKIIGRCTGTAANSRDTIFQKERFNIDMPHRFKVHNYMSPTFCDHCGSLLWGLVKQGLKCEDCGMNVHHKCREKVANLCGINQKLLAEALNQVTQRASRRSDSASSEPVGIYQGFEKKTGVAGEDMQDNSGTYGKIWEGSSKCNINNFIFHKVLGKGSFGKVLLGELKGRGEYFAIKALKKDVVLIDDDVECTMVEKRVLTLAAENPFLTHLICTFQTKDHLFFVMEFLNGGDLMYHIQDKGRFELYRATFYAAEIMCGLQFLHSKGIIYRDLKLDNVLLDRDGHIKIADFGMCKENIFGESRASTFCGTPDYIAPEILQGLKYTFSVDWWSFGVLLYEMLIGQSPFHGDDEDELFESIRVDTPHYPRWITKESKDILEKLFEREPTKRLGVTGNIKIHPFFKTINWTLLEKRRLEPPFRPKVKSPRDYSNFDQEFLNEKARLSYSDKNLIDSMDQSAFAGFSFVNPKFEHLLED

As to `Fc1ccc(Cl)cc1CNc1ncc2nc(-c3c(Cl)cccc3Cl)n(C[C@@H]3CCCNC3)c2n1` [Compound 102], on SGK kinase, the 50% inhibitory concentration (IC50) – broadly, the concentration needed to halve the response being measured – is over 10 µM. Also, the values for the Ki at PKC alpha, on PKCθ and on PKC delta were over 1000 nM, under 100 nM and over 1000 nM, respectively.

For the compound `Fc1cccc(CNc2ncc3nc(-c4c(Cl)cccc4Cl)n(C[C@@H]4CCCNC4)c3n2)c1` [Compound 103], the Ki (as a rule, a dissociation constant, usually derived from enzyme kinetics or from competition with a known ligand) is over 1000 nM at PKC alpha, under 100 nM on PKCθ and over 250 nM at PKC delta.

On to `Fc1ccc(F)c(CNc2ncc3nc(-c4c(Cl)cccc4Cl)n(C[C@@H]4CCCNC4)c3n2)c1` [Compound 104], for which the concentration for half-maximal inhibition (IC50) on SGK kinase was over 10 µM. The Ki was over 1000 nM at PKC alpha, under 100 nM on PKCθ and over 250 nM at PKC delta.

`Fc1ccc(CNc2ncc3nc(-c4c(Cl)cccc4Cl)n(C[C@@H]4CCCNC4)c3n2)cc1` [Compound 105]: the IC50-SGK1 entry against SGK kinase is listed as “Inactive”. The Ki at PKC alpha was over 1000 nM; at PKCθ, under 100 nM; on PKC delta it was over 250 nM.

For `Fc1ccc(Cl)cc1CNc1ncc2nc(-c3c(Cl)cccc3Cl)n(C[C@@H]3CCCNC3)c2n1` [Compound 106], the IC50-SGK1 entry on SGK kinase was “Inactive”. Moreover, the results for the Ki at PKC alpha, on PKCθ and at PKC delta were over 10000 nM, under 1000 nM and over 1000 nM, respectively.

In the case of `Clc1ccc(CNc2ncc3nc(-c4c(Cl)cccc4Cl)n(C[C@@H]4CCCNC4)c3n2)cc1Cl` [Compound 107], the Ki is over 10000 nM at PKC alpha, under 1000 nM on PKCθ and over 1000 nM at PKC delta.

As to `Fc1ccc(CNc2ncc3nc(-c4c(F)cccc4Cl)n(C[C@@H]4CCCNC4)c3n2)cc1Cl` [Compound 108], the IC50-SGK1 result against SGK kinase was “Inactive”. Besides, the values for the Ki on PKC alpha, on PKCθ and on PKC delta were over 1000 nM, under 1000 nM and over 1000 nM, respectively.

With `Fc1ccc(CNc2ncc3nc(-c4c(Cl)cccc4Cl)n(C[C@@H]4CCCNC4)c3n2)c(F)c1` [Compound 109], the IC50-SGK1 entry against SGK kinase is given as “Inactive”. Besides, the inhibition constant Ki at PKC alpha is over 1000 nM; at PKCθ, under 100 nM; on PKC delta, over 1000 nM.

For `Fc1ccccc1CNc1ncc2nc(-c3c(Cl)cccc3Cl)n(C[C@@H]3CCCNC3)c2n1` [Compound 110], the IC50 on SGK kinase was over 1 µM. Moreover, the results for the Ki at PKC alpha, at PKCθ and at PKC delta were over 1000 nM, under 100 nM and over 1000 nM, respectively.

As to `Fc1ccccc1CNc1ncc2nc(-c3c(Cl)cccc3Cl)n(C[C@@H]3CCCNC3)c2n1` [Compound 111], the IC50-SGK1 entry at SGK kinase is “Inactive”. This compound also returned a Ki on PKC alpha of over 1000 nM.

Regarding `Clc1cccc(Cl)c1C1=Nc2cnc(NCc3ccsc3)nc2C1C[C@@H]1CCCNC1` (some centres unmarked) [Compound 114], the IC50-SGK1 entry on SGK kinase is listed as “Inactive”.

Take `Fc1ccc(Cl)cc1CNc1ncc2nc(-c3c(F)cccc3Cl)n(C[C@@H]3CCCNC3)c2n1` [Compound 115]: at SGK kinase, the IC50 is over 10 µM. Also, the Ki on PKC alpha was over 10000 nM; at PKCθ it was under 1000 nM; at PKC delta, over 1000 nM.

Turning to `C[C@H](Nc1ncc2nc(-c3c(Cl)cccc3Cl)n(C[C@@H]3CCCNC3)c2n1)c1ccccc1F` [Compound 116], the IC50-SGK1 entry against SGK kinase was “Inactive”. Further, the Ki is over 10000 nM on PKC alpha, under 1000 nM on PKCθ and over 1000 nM at PKC delta.

As for `Fc1ccccc1CNc1ncc2nc(-c3c(Cl)cccc3Cl)n(CC3CCCNC3)c2n1` (centres unmarked) [Compound 117], the IC50-SGK1 entry at SGK kinase is on record as “Inactive”. The Ki on PKC alpha is over 1000 nM; on PKCθ it was under 1000 nM; on PKC delta it was over 1000 nM.

As to `Fc1ccc(CNc2ncc3nc(-c4c(Cl)cccc4Cl)n(CCC4CCNCC4)c3n2)cc1F` [Compound 118], the half-inhibitory concentration (IC50) at SGK kinase was over 10 µM. Moreover, the Ki is over 1000 nM at PKC alpha, under 1000 nM on PKCθ and over 1000 nM on PKC delta.

As for `Clc1cccc(Cl)c1-c1nc2cnc(NCc3cccs3)nc2n1C[C@@H]1CCCNC1` [Compound 119, (R)-8-(2,6-dichlorophenyl)-9-(piperidin-3-ylmethyl)-N-(thiophen-2-ylmethyl)-9H-purin-2-amine], the Ki at PKC alpha is over 1000 nM; at PKCθ, under 100 nM; at PKC delta, over 1000 nM.

For `Fc1ccc(CNc2ncc3nc(-c4c(Cl)cccc4Cl)n(C[C@H]4CCNC4)c3n2)cc1F` [Compound 121], the IC50-SGK1 result against SGK kinase is listed as “Inactive”. The Ki at PKC alpha was over 1000 nM; on PKCθ it was under 100 nM; on PKC delta, over 1000 nM.

For the compound `Fc1cccc(CNc2ncc3nc(-c4c(F)cccc4Cl)n(C[C@@H]4CCCNC4)c3n2)c1` [Compound 123], the values for the Ki at PKC alpha, at PKCθ and on PKC delta were over 1000 nM, under 1000 nM and over 1000 nM, respectively.

As for `Fc1cccc(Cl)c1-c1nc2cnc(NCc3ccc(Cl)c(Cl)c3)nc2n1C[C@@H]1CCCNC1` [Compound 132], the inhibition constant Ki on PKC alpha was over 10000 nM; at PKCθ, under 10000 nM; at PKC delta, over 1000 nM.

For `Clc1cccc(Cl)c1C1=Nc2cnc(NCc3nccs3)nc2C1C[C@@H]1CCCNC1` (some centres unmarked) [Compound 137], the IC50-SGK1 result on SGK kinase is “Inactive”.

For `Fc1ccc(CNc2ncc3nc(-c4c(Cl)cccc4Cl)n(CC4CCNC4)c3n2)cc1Cl` (centres unmarked) [Compound 139], the values for the Ki at PKC alpha, on PKCθ and at PKC delta were over 1000 nM, under 1000 nM and over 1000 nM, respectively.

Take `Fc1ccc(CNc2ncc3nc(-c4c(Cl)cccc4Cl)n(C[C@H]4CCNC4)c3n2)c(F)c1` [Compound 140]: the figures for the inhibition constant Ki on PKC alpha, at PKCθ and at PKC delta were over 1000 nM, under 1000 nM and over 1000 nM, respectively.

Regarding `Fc1cccc(Cl)c1-c1nc2cnc(NCc3ccccc3)nc2n1C[C@@H]1CCCNC1` [Compound 145], the Ki was over 1000 nM on PKC alpha, under 1000 nM on PKCθ and over 1000 nM at PKC delta.

Turning to `NC[C@H]1CC[C@H](n2c(-c3c(Cl)cccc3Cl)nc3cnc(NCc4ccccc4F)nc32)CC1` [Compound 149], on SGK kinase, the IC50 was over 10 µM. Also, the Ki is under 1000 nM at PKCθ and over 1000 nM on PKC delta.

`Fc1cccc(CNc2ncc3nc(-c4ccccc4Cl)n(C[C@@H]4CCCNC4)c3n2)c1` [Compound 152]: the figures for the Ki on PKC alpha, at PKCθ and at PKC delta were over 1000 nM, under 1000 nM and over 1000 nM, respectively.

As to `Clc1cccc(CNc2ncc3nc(-c4c(Cl)cccc4Cl)n(CC4CCNC4)c3n2)c1` (centres unmarked) [Compound 157], the Ki is over 1000 nM on PKC alpha, under 1000 nM at PKCθ and over 1000 nM on PKC delta.

For `Fc1ccc(Cl)cc1CNc1ncc2nc(-c3c(Cl)cccc3Cl)n(CC3CCNC3)c2n1` (centres unmarked) [Compound 159], the inhibitory constant (Ki) on PKC alpha was over 1000 nM; on PKCθ, under 1000 nM; on PKC delta, over 1000 nM.

`Clc1ccc(CNc2ncc3nc(-c4ccccc4Cl)n(C[C@@H]4CCCNC4)c3n2)cc1Cl` [Compound 165]: the Ki on PKC alpha was over 10000 nM; at PKCθ, under 10000 nM; at PKC delta it was over 1000 nM.

Regarding `Fc1cccc(Cl)c1-c1nc2cnc(NCc3cccs3)nc2n1C[C@@H]1CCCNC1` [Compound 169], the Ki at PKC alpha is over 10000 nM; at PKCθ, under 1000 nM; at PKC delta, over 1000 nM.

For `NC[C@H]1CC[C@H](n2c(-c3ccccc3Cl)nc3cnc(NCc4ccccc4F)nc32)CC1` [Compound 175], the IC50-SGK1 entry against SGK kinase is listed as “Inactive”. Also, the values for the Ki at PKCθ and at PKC delta were under 1000 nM and over 1000 nM, respectively.

Take `Cc1ccsc1CNc1ncc2nc(-c3c(Cl)cccc3Cl)n(C[C@@H]3CCCNC3)c2n1` [Compound 201]: on SGK kinase, the IC50-SGK1 result is given as “Inactive”.

For `Clc1cccc(Cl)c1-c1nc2cnc(NCc3cccs3)nc2n1CCC1CCNCC1` [Compound 203], the figures for the Ki on PKC alpha, at PKCθ and at PKC delta were over 10000 nM, under 1000 nM and over 1000 nM, respectively.

Take `Fc1ccc(CNc2ncc3nc(-c4c(F)cccc4Cl)n(CC4CCNC4)c3n2)cc1Cl` (centres unmarked) [Compound 204]: the inhibitory constant (Ki) on PKC alpha is over 10000 nM; at PKCθ, under 1000 nM; on PKC delta, over 1000 nM.

`Fc1ccc(CNc2ncc3c(n2)C(CC2CNCCO2)C(c2c(F)cccc2Cl)=N3)cc1F` (centres unmarked) [Compound 215]: the IC50-SGK1 entry against SGK kinase is reported as “Inactive”.

As for `Fc1ccccc1CNc1ncc2nc(-c3c(Cl)cccc3Cl)n(C[C@@H]3CCNC3)c2n1` [Compound 220], the figures for the inhibitory constant (Ki) on PKC alpha, on PKCθ and on PKC delta were over 1000 nM, under 1000 nM and over 1000 nM, respectively.

`Fc1ccccc1CNc1ncc2nc(-c3c(Cl)cccc3Cl)n(C3CCNCC3)c2n1` [Compound 221]: the IC50-SGK1 result against SGK kinase is “Inactive”.

`NCC1CCC(n2c(-c3cccc(F)c3F)nc3cnc(NCc4ccccc4F)nc32)CC1` (centres unmarked) [Compound 222]: the IC50-SGK1 result against SGK kinase is reported as “Inactive”.

As for `C[C@H](Nc1ncc2nc(-c3c(F)cccc3Cl)n(C[C@H]3CCNC3)c2n1)c1ccccc1F` [Compound 226], the Ki is over 1000 nM at PKC alpha, under 1000 nM at PKCθ and over 1000 nM at PKC delta.

`Fc1ccccc1CNc1ncc2nc(-c3cccc(F)c3F)n(CCC3CCNCC3)c2n1` [Compound 238]: the results for the inhibitory constant (Ki) on PKC alpha, on PKCθ and at PKC delta were over 1000 nM, under 1000 nM and over 1000 nM, respectively.

For the compound `Clc1cccc(Cl)c1-c1nc2cnc(NCc3ccccn3)nc2n1CC1CCNC1` (centres unmarked) [Compound 262], the values for the Ki on PKC alpha, at PKCθ and on PKC delta were over 1000 nM, under 1000 nM and over 1000 nM, respectively.

The values above are taken from patent US20110046131A1, “PURINES AS PKC-THETA INHIBITORS” (N.V. Organon and Pharmacopeia, LLC, priority 2006, published 2011).
